According to patent US20120107903A1 (priority 2010, published 2012):

Molecular target: Ralstonia pickettii 12D FAD dependent oxidoreductase (SEQ ID NO:9), variant QYY, S327Q/S366Y/A473Y (Ralstonia pickettii, UniProt A0ABM9ITV6, A473Y/S327Q/S366Y)
Format: biochemical
Details: read-out: Km (Mal)

Compound `OC[C@H]1O[C@H](O[C@H]2[C@H](O)[C@@H](O)C(O)O[C@@H]2CO)[C@H](O)[C@@H](O)[C@@H]1O` (stereo partly shown) [Mal, maltose] has a Km of over 100 mM.
